Reference: ChEMBL document CHEMBL3124743, “Imaging evaluation of 5HT2C agonists, [(11)C]WAY-163909 and [(11)C]vabicaserin, formed by Pictet-Spengler cyclization” (J Med Chem, 2014)
Blank lines part the entries; values can stand above or below the compound they belong to.

Key:
Brain [1] = experiment: Drug uptake in Papio anubis assessed as maximal uptake in brain at 2.33 mCi, iv after 20 mins of injection by PET imaging; type: ADME, organism-based; details: in vivo
Brain [2] = experiment: Drug uptake in Sprague-Dawley rat assessed as retention time in brain at 0.303 mCi, iv by PET imaging; type: ADME, organism-based
[3] = Octanol-water partition coefficient, log D of the compound at pH 7.4; type: physicochemical
Brain [4] = experiment: Drug uptake in Sprague-Dawley rat in regions outside brain at 0.303 mCi, iv by PET imaging; type: ADME, organism-based; details: in vivo
Brain [5] = experiment: Drug uptake in Papio anubis assessed as retention time in brain at 2.33 mCi, iv by PET imaging; type: ADME, organism-based
[6] = Fraction unbound in Papio Anubis plasma at 2.33 mCi, iv by PET imaging; type: ADME, organism-based
Brain [7] = experiment: Drug uptake in Sprague-Dawley rat assessed as retention time in brain at 0.99 mCi, iv by PET imaging; type: ADME, organism-based
[8] = biological target: T1, 5-hydroxytryptamine receptor 2C (Homo sapiens, UniProt P28335); experiment: Displacement of [125I]DOI from human 5-HT2C receptor
T1 sequence (P28335 whole entry): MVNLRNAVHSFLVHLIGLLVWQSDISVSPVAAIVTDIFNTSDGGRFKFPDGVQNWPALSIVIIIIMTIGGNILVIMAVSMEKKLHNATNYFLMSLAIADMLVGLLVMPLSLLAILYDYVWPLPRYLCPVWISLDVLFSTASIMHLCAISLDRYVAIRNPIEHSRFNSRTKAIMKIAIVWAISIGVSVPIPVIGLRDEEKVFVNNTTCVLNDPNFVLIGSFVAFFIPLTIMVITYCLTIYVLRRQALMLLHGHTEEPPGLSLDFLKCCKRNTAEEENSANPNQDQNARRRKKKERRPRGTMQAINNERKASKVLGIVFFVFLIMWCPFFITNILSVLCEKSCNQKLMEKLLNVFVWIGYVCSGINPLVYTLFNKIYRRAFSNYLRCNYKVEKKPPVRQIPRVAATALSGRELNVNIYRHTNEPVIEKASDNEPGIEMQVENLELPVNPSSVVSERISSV

Drug uptake (Brain [1]): Active | Retention_time (Brain [2]): 60 min | logD [3]: 1.53 | Drug uptake (Brain [4]): Active | Retention_time (Brain [5]): 80 min | fraction unbound [6]: 0.265
Compound: c1cc2c3c(c1)[C@H]1CCC[C@H]1N3CCN[11CH2]2

Retention_time (Brain [7]): 60 min
Compound: c1cc2c3c(c1)[C@H]1CCC[C@H]1CN3CCN[11CH2]2

Ki [8]: 3 nM
Compound: c1cc2c3c(c1)[C@H]1CCC[C@H]1CN3CCNC2 [VABICASERIN]
